Experimental data published in publication PMC12461627, “Locking CBL TKBD in its native conformation presents a novel therapeutic opportunity in mutant CBL-dependent leukemia” (Molecular Therapy, 2025).
Where two headings read alike, the source gives them in different places. Square brackets hold non-standard residues; d marks the D form. Ends that are not written are not given here. pY = N[C@@H](Cc1ccc(OP(=O)(O)O)cc1)C(=O)O

Legend:
[1] = Solubility as noted by the authors; type: physicochemical; details: qualitative, aqueous solution
[2] = tested on: MOLM-13Luc/CBLock cells in NSG mice
[3] = tested on: CBL mutant 70Z; test: GFP-trap co-immunoprecipitation with Myc-tagged CBL-70Z in HEK293 cells; type: cell-based; details: expressed as GFP-CBLock variants in HEK293 cells
Description: The cells were pelleted and lysed in IP lysis buffer (50 mM Tris-HCl pH 7.5, 150 mM NaCl, 1 mM EDTA, 1% IGEPAL CA-630, 10% glycerol, 0.5 mM DTT, and cOmplete protease inhibitor cocktail) to prepare the whole cell lysates. Immunoprecipitation and immunoblotting were performed using the lysates as described before.[28] For each regular immunoprecipitation reaction, 1 mg freshly prepared whole cell lysate was incubated with primary antibodies at 4 °C for 4 h on a rotatory shaker. […] Alternatively for each reaction, 1 mg freshly prepared whole cell lysate was incubated overnight with antibody- or immunoglobulin (Ig)G-conjugated agarose beads. The next day beads were washed three times with IP lysis buffer and once with PBS. […] This was followed by similar washing steps as mentioned before. The beads were then either processed for mass spectrometry or immunoprecipitated proteins were eluted at 95 °C in 40 μL 2X loading dye. A previous method was used to perform immunoblotting[51] and the immunoblots were scanned using an Odyssey CLx Imaging System (LI-COR Biosciences).

[4] = tested on: CBL (47–435) R139C/D435C variant (diCys); test: Disulfide bond formation assay; type: biochemical; details: CBL 47–435 diCys, SDS-PAGE, n = 3
Description: CBL variant mixtures were prepared at room temperature as described previously,[7] keeping aside a sample portion for zero-time point. Removal of DTT using a Zeba spin desalting column (Thermo Scientific) initiated the reactions. At indicated time points, samples were removed and quenched with 20 mM N-ethylmaleimide (NEM; Sigma) for 10 min and mixed with 4X SDS loading buffer. DTT (100 mM) was added to prepare the reduced samples. The samples were resolved by SDS-PAGE and the gels stained with Coomassie blue were scanned. The disulfide-bonded (D) and unmodified species (U) were quantified using the Image Studio software. Three independent experiments were performed, and curves for the disulfide bond fractions from each reaction were generated using GraphPad Prism.

Compound | Binding to CBL mutant 70Z [3] | Effect on diCys disulfide bond formation [4] | also measured
CC[C@H](C)[C@H](NC(=O)[C@H](Cc1c[nH]c2ccccc12)NC(=O)[C@H](CO)NC(=O)[C@H](CC(=O)O)NC(=O)[C@H](CCSC)NC(=O)[C@H](CCC(=O)O)NC(=O)[C@H](CCC(=O)O)NC(=O)[C@@H](NC(=O)[C@@H](NC(=O)[C@@H](N)CCSC)[C@@H](C)O)C(C)C)C(=O)N[C@@H](CCCCN)C(=O)N[C@@H](CO)C(=O)N[C@@H](Cc1c[nH]c2ccccc12)C(=O)N[C@@H](CC(=O)O)C(=O)N[C@@H](CCC(N)=O)C(=O)N[C@@H](CCCNC(=N)N)C(=O)O [CBLock] |  |  | Solubility [1]: enhanced solubility in aqueous solution; Body weight ([2]; cohort two): no marked changes in body weights; Body weight ([2]; first experiment, dox vs vehicle): no obvious difference in body weight
CBLock-DM: CBLock mutant D7A/I10A expressed as GFP or iRFP fusion (MTVEEMASWAKSWDQR; also: fused to GFP or iRFP) | failed to bind the CBL mutant 70Z |  | 
IKDWQDRSVWESMTME [CBLock-Sc2] | failed to bind the CBL mutant 70Z |  | 
SMEKTDQWRMVEIDSW [CBLock-Sc1] | failed to bind the CBL mutant 70Z |  | 
STVSFNP[pY]EPTGGPWG [pSYK, phosphotyrosine substrate peptide from SYK] |  | prevented formation of the diCys disulfide bond | 
TLNSDG(p)YTPEPA [pZAP70, phosphotyrosine substrate peptide from ZAP70] |  | prevented formation of the diCys disulfide bond | 
